Measured values: ChEMBL document CHEMBL3797055, “Glabridin-chalcone hybrid molecules: drug resistance reversal agent against clinical isolates of methicillin-resistant Staphylococcus aureus” (Medchemcomm, 2016)
Values after ≈ are worked out from the molar mass of the structure shown.

Assays:
Format in all cases: functional
Staphylococcus aureus [1] = experiment: Antibacterial activity against clinical isolates of methicillin-resistant Staphylococcus aureus P4423 by checkerboard assay in presence of norfloxacin
Staphylococcus aureus [2] = experiment: Ratio of MIC for clinical isolates of methicillin-resistant Staphylococcus aureus ST10760 to MIC for clinical isolates of methicillin-resistant Staphylococcus aureus ST10760 in presence of norfloxacin
Staphylococcus aureus [3] = experiment: Potentiation of norfloxacin-induced antibacterial activity against clinical isolates of methicillin-resistant Staphylococcus aureus P4650 assessed as reduction in norfloxacin MIC by checkerboard assay relative to control
Staphylococcus aureus [4] = experiment: Potentiation of norfloxacin-induced antibacterial activity against clinical isolates of methicillin-resistant Staphylococcus aureus ST10342 assessed as reduction in norfloxacin MIC by checkerboard assay relative to control
Staphylococcus aureus [5] = experiment: Antibacterial activity against clinical isolates of methicillin-resistant Staphylococcus aureus P4423 by broth microdilution assay
Staphylococcus aureus [6] = experiment: Antibacterial activity against clinical isolates of methicillin-resistant Staphylococcus aureus ST10760 by checkerboard assay in presence of norfloxacin
Staphylococcus aureus [7] = experiment: Bactericidal activity against clinical isolates of methicillin-resistant Staphylococcus aureus ST2071 assessed as reduction in viability at 0.5 MIC after 24 hrs by time kill kinetic analysis relative to control
Staphylococcus aureus [8] = experiment: Bactericidal activity against clinical isolates of methicillin-resistant Staphylococcus aureus ST2071 assessed as reduction in viability at MIC after 24 hrs by time kill kinetic analysis relative to control
Staphylococcus aureus [9] = experiment: Antibacterial activity against clinical isolates of methicillin-resistant Staphylococcus aureus P4629 by checkerboard assay in presence of norfloxacin
Staphylococcus aureus [10] = experiment: Potentiation of norfloxacin-induced antibacterial activity against clinical isolates of methicillin-resistant Staphylococcus aureus P4650 assessed as norfloxacin MIC by checkerboard assay
Staphylococcus aureus [11] = experiment: Potentiation of norfloxacin-induced antibacterial activity against clinical isolates of methicillin-resistant Staphylococcus aureus P4423 assessed as norfloxacin MIC by checkerboard assay
Staphylococcus aureus [12] = experiment: Antibacterial activity against clinical isolates of methicillin-resistant Staphylococcus aureus ST2071 by checkerboard assay in presence of norfloxacin
Staphylococcus aureus [13] = experiment: Antibacterial activity against clinical isolates of methicillin-resistant Staphylococcus aureus ST10342 by broth microdilution assay
Staphylococcus aureus [14] = experiment: Antibacterial activity against clinical isolates of methicillin-resistant Staphylococcus aureus P4650 by broth microdilution assay
Staphylococcus aureus [15] = experiment: Ratio of MIC for clinical isolates of methicillin-resistant Staphylococcus aureus ST2071 to MIC for clinical isolates of methicillin-resistant Staphylococcus aureus ST2071 in presence of norfloxacin
Staphylococcus aureus [16] = experiment: Antibacterial activity against clinical isolates of methicillin-resistant Staphylococcus aureus P4629 by broth microdilution assay
Staphylococcus aureus [17] = experiment: Potentiation of norfloxacin-induced antibacterial activity against clinical isolates of methicillin-resistant Staphylococcus aureus P4423 assessed as reduction in norfloxacin MIC by checkerboard assay relative to control
Staphylococcus aureus [18] = experiment: Antibacterial activity against clinical isolates of methicillin-resistant Staphylococcus aureus ST10760 by broth microdilution assay
Staphylococcus aureus [19] = experiment: Antibacterial activity against clinical isolates of methicillin-resistant Staphylococcus aureus P4650 by checkerboard assay in presence of norfloxacin
Staphylococcus aureus [20] = experiment: Potentiation of norfloxacin-induced antibacterial activity against clinical isolates of methicillin-resistant Staphylococcus aureus ST2071 assessed as norfloxacin MIC by checkerboard assay
Staphylococcus aureus [21] = experiment: Antibacterial activity against Staphylococcus aureus MTCC 96 by broth microdilution assay
Staphylococcus aureus [22] = experiment: Potentiation of norfloxacin-induced antibacterial activity against clinical isolates of methicillin-resistant Staphylococcus aureus ST10760 assessed as norfloxacin MIC by checkerboard assay
Staphylococcus aureus [23] = experiment: Potentiation of norfloxacin-induced antibacterial activity against clinical isolates of methicillin-resistant Staphylococcus aureus ST2071 assessed as reduction in norfloxacin MIC by checkerboard assay relative to control
Staphylococcus aureus [24] = experiment: Potentiation of norfloxacin-induced antibacterial activity against clinical isolates of methicillin-resistant Staphylococcus aureus P4629 assessed as reduction in norfloxacin MIC by checkerboard assay relative to control
Staphylococcus aureus [25] = experiment: Potentiation of norfloxacin-induced antibacterial activity against clinical isolates of methicillin-resistant Staphylococcus aureus ST10760 assessed as reduction in norfloxacin MIC by checkerboard assay relative to control
Staphylococcus aureus [26] = experiment: Antibacterial activity against clinical isolates of methicillin-resistant Staphylococcus aureus ST2071 by broth microdilution assay
Staphylococcus aureus [27] = experiment: Potentiation of norfloxacin-induced antibacterial activity against clinical isolates of methicillin-resistant Staphylococcus aureus P4629 assessed as norfloxacin MIC by checkerboard assay
Staphylococcus aureus [28] = experiment: Bactericidal activity against clinical isolates of methicillin-resistant Staphylococcus aureus ST2071 assessed as reduction in viability at 0.5 MIC after 24 hrs by time kill kinetic analysis in presence of norfloxacin relative to control
Staphylococcus aureus [29] = experiment: Antibacterial activity against clinical isolates of methicillin-resistant Staphylococcus aureus ST10342 by checkerboard assay in presence of norfloxacin
Staphylococcus aureus [30] = experiment: Ratio of MIC for clinical isolates of methicillin-resistant Staphylococcus aureus P4423 to MIC for clinical isolates of methicillin-resistant Staphylococcus aureus P4423 in presence of norfloxacin
Staphylococcus aureus [31] = experiment: Potentiation of norfloxacin-induced antibacterial activity against clinical isolates of methicillin-resistant Staphylococcus aureus ST10342 assessed as norfloxacin MIC by checkerboard assay
Staphylococcus aureus [32] = experiment: Ratio of MIC for clinical isolates of methicillin-resistant Staphylococcus aureus P4629 to MIC for clinical isolates of methicillin-resistant Staphylococcus aureus P4629 in presence of norfloxacin
Staphylococcus aureus [33] = experiment: Ratio of MIC for clinical isolates of methicillin-resistant Staphylococcus aureus P4650 to MIC for clinical isolates of methicillin-resistant Staphylococcus aureus P4650 in presence of norfloxacin
Staphylococcus aureus [34] = experiment: Ratio of MIC for clinical isolates of methicillin-resistant Staphylococcus aureus ST10342 to MIC for clinical isolates of methicillin-resistant Staphylococcus aureus ST10342 in presence of norfloxacin

SMILES	fractional inhibitory concentration index (FICI) (Staphylococcus aureus [1])	fold change (FC) (Staphylococcus aureus [3])	fold change (FC) (Staphylococcus aureus [4])	MIC (Staphylococcus aureus [5]) [µg/mL]	fractional inhibitory concentration index (FICI) (Staphylococcus aureus [6])	fold change (FC) (Staphylococcus aureus [7])	fold change (FC) (Staphylococcus aureus [8])	fractional inhibitory concentration index (FICI) (Staphylococcus aureus [9])	MIC (Staphylococcus aureus [10]) [µg/mL]	MIC (Staphylococcus aureus [11]) [µg/mL]	fractional inhibitory concentration index (FICI) (Staphylococcus aureus [12])	MIC (Staphylococcus aureus [13]) [µg/mL]	MIC (Staphylococcus aureus [14]) [µg/mL]	MIC (Staphylococcus aureus [16]) [µg/mL]	fold change (FC) (Staphylococcus aureus [17])	MIC (Staphylococcus aureus [18]) [µg/mL]	fractional inhibitory concentration index (FICI) (Staphylococcus aureus [19])	MIC (Staphylococcus aureus [20]) [µg/mL]	MIC (Staphylococcus aureus [21]) [µg/mL]	MIC (Staphylococcus aureus [22]) [µg/mL]	further results
COc1cc(OC)c([C@@H]2COc3c(cc(/C=C/C(=O)c4ccc(OC)c(OC)c4)c4c3C=CC(C)(C)O4)C2)cc1/C=C/C(=O)c1ccc(OC)c(OC)c1	0.75	4	4	25 (≈ 34.1 µM)	0.375	<=1.52	2	0.5	62.5	62.5	0.5	12.5 (≈ 17.1 µM)	12.5 (≈ 17.1 µM)	12.5 (≈ 17.1 µM)	4	25 (≈ 34.1 µM)	0.75	125	12.5 (≈ 17.1 µM)	62.5	Ratio (Staphylococcus aureus [2]): 4; Ratio (Staphylococcus aureus [15]): 4; fold change (FC) (Staphylococcus aureus [23]): 4; fold change (FC) (Staphylococcus aureus [24]): 4; fold change (FC) (Staphylococcus aureus [25]): 8; MIC (Staphylococcus aureus [26]): 25 µg/mL (≈ 34.1 µM); MIC (Staphylococcus aureus [27]): 125 µg/mL; fold change (FC) (Staphylococcus aureus [28]): <=3; fractional inhibitory concentration index (FICI) (Staphylococcus aureus [29]): 0.75; Ratio (Staphylococcus aureus [30]): 4; MIC (Staphylococcus aureus [31]): 62.5 µg/mL
CC1(C)C=Cc2c(ccc3c2OC[C@@H](c2ccc(O)cc2O)C3)O1 [GLABRIDIN]	1	4	2	12.5 (≈ 38.5 µM)	0.75	<=1.52	2	0.5	62.5	125	0.75	12.5 (≈ 38.5 µM)	12.5 (≈ 38.5 µM)	12.5 (≈ 38.5 µM)	2	12.5 (≈ 38.5 µM)	0.5	250	3.12 (≈ 9.63 µM)	125	Ratio (Staphylococcus aureus [32]): 4; Ratio (Staphylococcus aureus [33]): 4; fold change (FC) (Staphylococcus aureus [23]): 2; fold change (FC) (Staphylococcus aureus [24]): 4; fold change (FC) (Staphylococcus aureus [25]): 4; MIC (Staphylococcus aureus [26]): 12.5 µg/mL (≈ 38.5 µM); MIC (Staphylococcus aureus [27]): 125 µg/mL; fractional inhibitory concentration index (FICI) (Staphylococcus aureus [29]): 1; MIC (Staphylococcus aureus [31]): 125 µg/mL
COc1ccc([C@@H]2COc3c(cc(/C=C/C(=O)c4ccco4)c4c3C=CC(C)(C)O4)C2)c(OC)c1	0.5	4	8	12.5 (≈ 26.5 µM)	0.375	<=1.52	2	0.625	62.5	31.2	0.375	12.5 (≈ 26.5 µM)	12.5 (≈ 26.5 µM)	12.5 (≈ 26.5 µM)	8	25 (≈ 52.9 µM)	0.625	62.5	12.5 (≈ 26.5 µM)	62.5	Ratio (Staphylococcus aureus [2]): 4; Ratio (Staphylococcus aureus [32]): 4; Ratio (Staphylococcus aureus [34]): 4; Ratio (Staphylococcus aureus [15]): 4; Ratio (Staphylococcus aureus [33]): 4; fold change (FC) (Staphylococcus aureus [23]): 8; fold change (FC) (Staphylococcus aureus [24]): 4; fold change (FC) (Staphylococcus aureus [25]): 8; MIC (Staphylococcus aureus [26]): 25 µg/mL (≈ 52.9 µM); MIC (Staphylococcus aureus [27]): 125 µg/mL; fold change (FC) (Staphylococcus aureus [28]): <=3; fractional inhibitory concentration index (FICI) (Staphylococcus aureus [29]): 0.5; Ratio (Staphylococcus aureus [30]): 4; MIC (Staphylococcus aureus [31]): 31.2 µg/mL
